Series [1] can be described thus: In vitro metabolism with rat liver microsomes. The following applies: NADPH, 30 min. Format: in vitro ADME. The protocol: Labelled compounds ([^11C]AHK2.1, 2.8 MBq, 0.4 nmol; [^11C]AHK2.2, 4.7–5.1 MBq, 0.2–0.4 nmol; [^3H]AHK2, 0.25 MBq, 0.5 nmol; or non-radioactive AHK2, the latter for metabolite identification) and microsomal protein (rat Sprague Dawley microsomes, Thermo Fisher Scientific, Carlsbad, CA, USA; which are a sub-cellular fraction of hepatocytes containing enzymes responsible for the metabolism of over 90% of commercial drugs; 20 mg/mL) were pre-incubated for 5 min with gentle agitation (300 rpm) in 100 mM phosphate buffer (pH 7.4). The reaction was initiated by the addition of 10 μL freshly prepared 20 mM nicotinamide adenine dinucleotide phosphate (NADPH, Roche, Mannheim, Germany) in 100 mM phosphate buffer (pH 7.4). […] The resulting supernatants were analysed by HPLC, using an Agilent 1200 Series chromatograph equipped with a multiple wavelength UV detector (λ = 254 nm) and two radioactivity detectors, one of them equipped with a solid scintillation cell, especially designed to detect low energy β^- (Ramona, Raytest), and one of them equipped with a NaI crystal, for the detection of γ-rays (Gabi, Raytest). […] For the non-radioactive AHK2, the resulting supernatants were analysed by ultra-high-performance liquid chromatography coupled with electrospray ionization time-of-flight mass spectrometry (UHPLC-ESI-TOF-MS, Electrospray positive mode/W mode m/z range 100–1000). […]
On the technique in general: Liver microsomes are a subcellular fraction often used to study metabolism.

In the next series the target is T1, FKBP12 (Homo sapiens, UniProt P62942).
T1 construct: host or cells: HEK293
Nature of the series: Competitive ligand binding assay (FKBP/FRB NanoBiT luminescence protein complementation) in HEK293 cells. It is filed as cell-based. The protocol:
Briefly, HEK293 (ATCC) cells were transfected with FKBP/FRB NanoBiT Control Pair (Promega, Madison, WI, USA) and kinetic measurements were performed 24 h after transfection with Nano-Glo Live Cell Reagent (Promega), as described by the manufacturer. A total of 30 nM rapamycin (Sigma-Aldrich, Madrid, Spain) and AHK2 (1 μM–10 mM) was sequentially added and each effect was recorded for 10 min. Specific activity was normalized to vehicle, and IC50 was calculated using GraphPad Prism by fitting the data to a four-parameter logistic curve.

Molecules are shown by their SMILES. Entries after “also recorded” stand apart in the source; their conditions may differ.

T1 sequence (P62942 whole entry): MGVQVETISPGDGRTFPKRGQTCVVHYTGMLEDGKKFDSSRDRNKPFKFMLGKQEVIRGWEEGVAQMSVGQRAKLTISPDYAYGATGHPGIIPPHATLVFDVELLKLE

With `COc1ccc(SCc2cn(CCN(C)C)nn2)cc1` [AHK2, 1-[2-(N,N-dimethylamino)ethyl]-4-[(4-methoxyphenyl)thiomethyl]-1H-1,2,3-triazole], the main metabolic pathways result in series [1] is “oxidation of the thioether group into sulfoxide, demethylation of the CH3O-Ar residue and demethylation of –N(CH3)2”. In addition, the IC50 (usually the midpoint of a concentration-inhibition curve) at FKBP12 (30 nM rapamycin, AHK2 1 μM–10 mM, read-out: IC50, displacement of rapamycin from FKBP12 (inhibition of FKBP12-Rapamycin-FRB interaction)) was determined as 2.98 mM. Further, at FKBP12 (rapamycin 30 nM), the “induction of FKBP12/FRB dimerization (luminescence)” value is reported as “did not induce FKBP12/FRB dimerization; also recorded: not able to induce FKBP12/FRB dimerization”.

For the origin of these results see paper PMC9953224, “Pharmacokinetic Evaluation of New Drugs Using a Multi-Labelling Approach and PET Imaging: Application to a Drug Candidate with Potential Application in Neuromuscular Disorders” (Biomedicines, 2023).
